Test results taken from the supplement of paper PMC13380429.

Tests used:
Conditions in all cases: 72 h
[1] = system: Caco-2; assay: drug sensitivity score (DSS) for viability; higher = more toxic; extreme values may be limits of the assay
[2] = system: U2OS; assay: as above
[3] = system: Vero E6; assay: as above
[4] = system: Calu-3; assay: as above
[5] = system: HepG2; assay: as above
[6] = system: Caco-2; assay: relative viability EC50 (midpoint between 100% and the lowest measured viability); higher = less toxic
[7] = system: U2OS; assay: as above
[8] = system: Vero E6; assay: as above
[9] = system: Calu-3; assay: as above
[10] = system: Caco-2; assay: cell viability relative to DMSO; higher = less toxic
[11] = system: U2OS; assay: as above
[12] = system: Vero E6; assay: as above
[13] = system: Calu-3; assay: as above
[14] = system: HepG2; assay: as above
[15] = system: HepG2; assay: relative viability EC50 (midpoint between 100% and the lowest measured viability); higher = less toxic

Row | Compound | drug sensitivity score [1] | drug sensitivity score [2] | drug sensitivity score [3] | drug sensitivity score [4] | drug sensitivity score [5] | relative viability EC50 [6] [µM] | relative viability EC50 [7] [µM] | relative viability EC50 [8] [µM] | relative viability EC50 [9] [µM] | cell viability ([10]; 1 nM) [%] | cell viability ([10]; 10 nM) [%] | cell viability ([10]; 100 nM) [%] | cell viability ([10]; 1000 nM) [%] | cell viability ([10]; 10000 nM) [%] | cell viability ([11]; 1 nM) [%] | cell viability ([11]; 10 nM) [%] | cell viability ([11]; 100 nM) [%] | cell viability ([11]; 1000 nM) [%] | cell viability ([11]; 10000 nM) [%] | cell viability ([12]; 1 nM) [%] | cell viability ([12]; 10 nM) [%] | cell viability ([12]; 100 nM) [%] | cell viability ([12]; 1000 nM) [%] | cell viability ([12]; 10000 nM) [%] | cell viability ([13]; 1 nM) [%] | cell viability ([13]; 10 nM) [%] | cell viability ([13]; 100 nM) [%] | cell viability ([13]; 1000 nM) [%] | cell viability ([13]; 10000 nM) [%] | cell viability ([14]; 1 nM) [%] | cell viability ([14]; 10 nM) [%] | cell viability ([14]; 100 nM) [%] | cell viability ([14]; 1000 nM) [%] | cell viability ([14]; 10000 nM) [%] | relative viability EC50 [15] [µM]
1 | CC(C)N(CCC(=O)c1ccc2ccccc2c1)Cc1ccccc1 | 0 | 0 | 0.3 | 0 | 1.4 | > 10 | > 10 | > 10 | > 10 | 90.3 | 94.8 | 94.4 | 97.7 | 99.5 | 99.2 | 98.2 | 93.5 | 96.7 | 95 | 96.2 | 98.7 | 99 | 96.3 | 87 | 97.6 | 102 | 102 | 97.5 | 92.1 | 98.4 | 91.6 | 99 | 101 | 66.6 | –
2 | CCc1c(-c2ccccc2)c(-c2ccccc2)nn1-c1ccccc1-c1cccc(OCC(=O)O)c1 | 0 | 0 | 0 | 0.5 | – | > 10 | > 10 | > 10 | > 10 | 102 | 105 | 97.8 | 113 | 91.5 | 99.7 | 101 | 98 | 105 | 97.4 | 102 | 103 | 103 | 101 | 97.9 | 93.4 | 94.7 | 101 | 94 | 86.3 | – | – | – | – | – | –
3 | CNC(=O)c1cccc(NC(=O)N2CCC(Oc3ccccc3Cl)CC2)c1 | 0.3 | 0 | 0 | 0 | 4.8 | > 10 | > 10 | > 10 | > 10 | 94.3 | 100 | 93.2 | 102 | 82.7 | 94.9 | 103 | 97.3 | 99.6 | 91.4 | 102 | 99.5 | 97 | 89.9 | 91 | 80.3 | 99.6 | 86.4 | 99.4 | 101 | 99.1 | 101 | 92.4 | 79.3 | 50.5 | –
4 | CNc1nc(-c2ccc3c(N)n[nH]c3c2)cc(N2C[C@@H](C(=O)NC3CCCCC3)CC[C@H]2C)n1 | 4.8 | 3.2 | 2.3 | 5.9 | 5.7 | – | – | – | 0.737 | 106 | 106 | 102 | 79 | 58 | 93.7 | 101 | 95.9 | 91 | 62.3 | 97.1 | 94.9 | 98.6 | 91 | 71.9 | 93.5 | 93.3 | 87.5 | 77.3 | 48.1 | 103 | 108 | 101 | 72.4 | 53.9 | –
5 | COc1ccc(-c2oc3cc(OC)ccc3c2C(=O)c2ccc(C#N)cc2)cc1 | 0 | 0 | 0 | 0 | 2 | > 10 | > 10 | > 10 | > 10 | 99.7 | 96.4 | 95.3 | 93.6 | 87.2 | 98.2 | 103 | 95.2 | 101 | 95.4 | 104 | 101 | 101 | 96.4 | 99 | 96.4 | 98.8 | 101 | 106 | 102 | 107 | 96.8 | 109 | 92.8 | 74.4 | –
6 | COc1ccc(Cn2ccc3ccc(C(=O)NO)cc32)cc1 | 1.2 | 1.6 | 3.4 | 0.1 | 3.2 | – | – | – | > 10 | 98 | 97 | 100 | 101 | 70.1 | 97.9 | 98.2 | 97.5 | 97 | 72.4 | 96.7 | 100 | 104 | 94.8 | 51.5 | 103 | 95.2 | 96.8 | 100 | 86.7 | 105 | 102 | 97.7 | 94.2 | 56.4 | –
7 | COc1ccc2[nH]cc(C3=CCNCC3)c2c1 | 0 | 0 | 0 | 0 | – | > 10 | > 10 | > 10 | > 10 | 90.7 | 107 | 99.6 | 106 | 98.4 | 95.7 | 103 | 96 | 102 | 98.8 | 101 | 98.7 | 104 | 105 | 100 | 92.3 | 90 | 95.1 | 96.1 | 101 | – | – | – | – | – | –
8 | COc1ccc2nc3[nH]nc(C)c3c(NCCOCCO)c2c1 | 0 | 0 | 0 | 2.1 | 2.4 | > 10 | > 10 | > 10 | – | 103 | 102 | 89.6 | 100 | 96.8 | 102 | 102 | 95.9 | 105 | 104 | 106 | 98 | 102 | 99.4 | 91.9 | 106 | 107 | 88.8 | 94.7 | 70 | 104 | 97.2 | 102 | 87.6 | 75 | > 10
9 | C[C@]12CC[C@@H](O)C[C@@H]1CC[C@@H]1[C@@H]2CC[C@]2(C)C(c3ccccc3)=CC[C@@H]12 [17-PA] | 0.3 | 0 | 0 | 0 | – | > 10 | > 10 | > 10 | > 10 | 95 | 87.9 | 87.5 | 104 | 82.6 | 96.1 | 101 | 96.4 | 103 | 102 | 98.1 | 89.2 | 99.6 | 93 | 107 | 101 | 106 | 94.2 | 94.7 | 99.8 | – | – | – | – | – | –
10 | CN(c1ccc(NC(=O)Nc2ccccc2)cc1)S(=O)(=O)c1cnn(-c2ccc(F)cc2)c1 [BTT-3033] | 0 | 0 | – | 0 | – | > 10 | > 10 | – | > 10 | 101 | 115 | 96.3 | 109 | 100 | 104 | 104 | 101 | 111 | 99.8 | – | – | – | – | – | 96.7 | 104 | 97.6 | 97.5 | 106 | – | – | – | – | – | –
11 | C[C@@H](N[C@H]1CCCC[C@@H]1NC(=O)c1ccc(Cl)cc1)c1cccc2ccccc12 [Calhex-231] | 0 | 0.3 | 0 | 0.1 | 1.7 | > 10 | > 10 | > 10 | > 10 | 104 | 91.7 | 91.6 | 102 | 92.9 | 98.7 | 96.2 | 99.8 | 94.1 | 87.3 | 103 | 104 | 102 | 98.9 | 93.4 | 91.9 | 108 | 95.9 | 109 | 85.8 | 97.9 | 101 | 95.7 | 97.9 | 68.6 | –
12 | COc1ccc(S(=O)(=O)N(C(C)=O)c2ccccc2/C=C/c2cc[n+]([O-])cc2)cc1 [HMN-214] | 8 | 9.8 | 10.7 | 5.3 | 11.3 | 0.41 | 0.634 | 0.324 | – | 105 | 89.6 | 94.2 | 60.3 | 48.4 | 97.5 | 95.8 | 96.9 | 51.9 | 29.3 | 94.6 | 97.9 | 99.8 | 41.8 | 41 | 101 | 95 | 105 | 71.5 | 60.4 | 98.4 | 105 | 98.1 | 40.3 | 38 | 0.323
13 | Cc1ccc(-c2csc(NC(=O)c3ccccc3)n2)c(C)c1 [INH1] | 0.4 | 0 | 0 | 0 | 1.8 | > 10 | > 10 | > 10 | > 10 | 97.2 | 104 | 96.1 | 91.5 | 85.8 | 94.7 | 101 | 95.3 | 96.3 | 96.6 | 102 | 96.8 | 98.4 | 97.5 | 91.1 | 96.9 | 102 | 101 | 107 | 98.3 | 102 | 104 | 98.8 | 104 | 58.7 | –
14 | CC(=O)NC1=NN(C(C)=O)[C@](C)(c2ccccc2)S1 [K-858] | 1.1 | 2 | 3.7 | 0 | 2.9 | – | – | 2.63 | > 10 | 106 | 102 | 91.3 | 102 | 71 | 97 | 96.5 | 97.6 | 98.3 | 63.9 | 103 | 103 | 99 | 96.2 | 42.2 | 108 | 93 | 96.3 | 101 | 91.5 | 98.8 | 101 | 98.7 | 106 | 39.2 | 3.65
15 | Cc1ccccc1CN1C2=NCCN2C(=O)C2=C1CCN(Cc1ccccc1)C2 [TIC10] | 0 | – | 0 | 0 | – | > 10 | – | > 10 | > 10 | 110 | 106 | 104 | 93.7 | 103 | – | – | – | – | – | 107 | 106 | 98.8 | 99.5 | 103 | 98.9 | 99.7 | 98 | 102 | 92.4 | – | – | – | – | – | –
16 | CC(=O)O[C@H]1CC[C@@]2(C)C(=CC[C@@H]3[C@@H]2CC[C@]2(C)C(c4cccnc4)=CC[C@@H]32)C1 [abiraterone-acetate] | 0 | 0 | – | 0 | – | > 10 | > 10 | – | > 10 | 97.1 | 99.8 | 95.5 | 92.8 | 92.6 | 101 | 100 | 99.5 | 95.8 | 102 | – | – | – | – | – | 98.3 | 102 | 96.6 | 87.8 | 107 | – | – | – | – | – | –
